Data from the SangsterLogP compilation.

How the values were obtained:
[1] = method code SF, from PMID: 8453740
[2] = method code SF-W, from PMID: 8453740

Structure (SMILES)	logP [1]	further results
CCCCCCOc1cccc(-c2cn(C)cc(-c3ccc(Cl)cc3)c2=O)c1	–	logP: 5.23
CCCCCCN(C)C(=O)c1cccc(Oc2ccccc2)c1	–	logP: 5.01
CCN(C)C(=O)c1cccc(Oc2ccccc2)c1	2.98	–
CNc1cnn(-c2cccc(C(F)(F)F)c2)c(=O)c1Cl	–	logP [2]: 2.52
CCCCCN(C)C(=O)c1cccc(Oc2ccccc2)c1	4.43	–
CNC1=C(c2cccc(C(F)(F)F)c2)C(=O)C(c2ccccc2)O1 (stereo not drawn)	3.22	–
COc1cccc(-c2cn(C)cc(-c3ccccc3)c2=O)c1	1.94	–
Cc1ccc(C)c(Oc2cccc(C(=O)NC(C)(C)C)c2)c1	4.78	–
CN(C)C(=O)c1cccc(Oc2ccccc2)c1	2.57	–
CCCCCOc1cccc(-c2cn(C)cc(-c3ccccc3)c2=O)c1	4.07	–
CCCN(C)C(=O)c1cccc(Oc2ccccc2)c1	3.44	–
Cc1ccc(C)c(Oc2cccc(C(=O)NC(C)C)c2)c1	4.35	–
CN(C)C=C1OC(=O)C(C#N)=C1c1ccccc1	1.07	–

The next lines start with results.

logP [1]	Structure (SMILES)	further results
3.76	CNC(=O)c1cccc(Oc2cc(C)ccc2C)c1	–
4.59	CCCCCCOc1cccc(-c2cn(C)cc(-c3ccccc3)c2=O)c1	–
2.86	CNC(=O)c1cccc(Oc2ccccc2)c1	–
3.89	CCCCN(C)C(=O)c1cccc(Oc2ccccc2)c1	–
2.98	CCCOc1cccc(-c2cn(C)cc(-c3ccccc3)c2=O)c1	–
